Laboratory results published in patent US20160339036A1, “Compound with Anti-Cancer Properties” (Velgene 3 Limited, priority 2013, published 2016).

Tests used:
[1] = test system: tumour cell lines of Table 1 (CCRF-CEM, K562, MCF7, PANC1, B16, HT168M1, HCT116, PC3); experiment: Proliferation assay (MTT) on tumour cell lines; type: cell-based, human; mouse (B16); details: 0.6, 2 and 6 μM, evaluated 24, 48 and 72 hours after treatment, One-Way ANOVA Post Hoc Scheffe Test, FIG. 4
Protocol: The first step was to examine the effect of T0504-7238 on the growth of tumour cells of the cell lines listed below in Table I. Our aim was to select the most therapy-sensitive cell lines as a preparation for the in vivo experiments.
Tumour cells were maintained in RPMI 1640 medium supplemented with 10% FBS (Sigma) and 1% penicillin/streptomycin solution (5,000 units penicillin and 5 mg streptomycin/ml) (Sigma) at 37° C. in a 5% CO2 atmosphere and used at confluence or at minimum 10^6 cells/ml density.
Single cell suspensions of different cell lines (Table 1) were put into 96-well microtiter plates for setting up 18-24 parallel samples per experimental group at 4×10^3 cell/well. The appropriate amount of T0504-7238 was suspended in a 3:1 DMSO: Solutol solution, which was then further diluted to the final concentration without the risk of precipitation. […]
Within each group samples were evaluated 24, 48 and 72 hours after treatment. […] After discarding of the culture medium plates were dried at room temperature, formazan crystals dissolved in dimethyl sulfoxide (100 μl/well) and the absorbance (OD) was measured at 570 nm using a microplate reader (Bio-Rad 550).
(§1) The results of our measurements were evaluated using One-Way ANOVA Post Hoc Scheffe Test.

HT168M1 human melanoma = experiment: HT168M1 human melanoma, subcutaneous implantation in CB17/scid mice; type: in vivo, CB17/scid female mice
Excerpt: (§2) Both the environment of the experimental animals and the execution of the actual experiments followed the up to date legislation and ethical regulations of Hungary. […] The experimental animals were derived from the The Jackson Laboratory (610 Main Street Bar Harbor, Me. 04609, USA). All personnel involved with the in vivo experiments are qualified to perform the described experiments.
2,5×10^5 human melanoma (HT168M1) cells, from the in vitro cell line, were subcutaneously (s.c.) implanted into the dorsal region of adult CB17/scid female mice with congenital immunodeficiency under diethyl ether narcosis. The animals were randomised, divided into two groups (11 treated, 11 control) and labelled with individual ear-markings on the 10th post-implantation day. From that day onwards, the treated group was intraperitoneally (i.p) treated with T0504-7238 (2 mg/kg-3:1 DMSO:Solutol solution) once every second day. The control group was also treated with identical frequency to the treatment group i.p. injecting appropriately diluted 3:1 DMSO:Solutol solution. The animals were weighed weekly and individual changes were recorded using the ear-marking system. The tumour diameter was also individually recorded from the earliest palpable stage using a pair of compasses (caliper). Tumour volume was estimated usin the π/6×a×b^2 formula, where ‘a’ is the longer and ‘b’ is the shorter diameter. The experiment was terminated on the 41st post-implantation day—the animals were sacrificed using Nembutal. The evaluation was based on the weight of the primary tumour.
as §1

[2] = test system: PC3 human prostate carcinoma; experiment: PC3 human prostate tumour, implantation into prostate of CB17/scid mice; type: in vivo, CB17/scid male mice; details: 2 mg/kg i.p. once every second day from 13th post-implantation day, evaluated on 31st day
Excerpt: as §2
The abdominal wall of CB17/scid male mice was opened at the level of the prostate under Nembutal anaesthesia (75 mg/kg). A single cell suspension (2.15×10^5 cell/20 μl) of the PC3 human prostate carcinoma cell line was implanted into the prostate using micro syringe (Hamilton). The abdominal was closed with a single layer of surgical thread (3/0 Vicryl), the skin was closed with outwards turning wound edges using surgical clips (Michel Wound Clips, 7.5 mm). After the wound healing completed, the animals were randomised, divided into two groups (9 treated, 9 control) and labelled with individual ear-markings on the 13th post-implantation day. From that day onwards, the treated group was intraperitoneally (i.p) treated with T0504-7238 (2 mg/kg-3:1 DMSO:Solutol solution) once every second day. […] The animals were weighed weekly and individual changes were recorded using the ear-marking system. […]
as §1

Q: Which results are given for `O=C1C(Cl)=C(N2CCOCC2)C(=O)c2ccc(S(=O)(=O)N3CCOCC3)cc21` [T0504-7238]?
A: growth of all tumour cell lines [1]: dose-dependently, significantly decreased the growth; detectable tumor entirely necrotic, share of cases in treated group (HT168M1 human melanoma; 2 mg/kg i.p. once every second day from 10th post-implantation day, evaluated on 41st day): 20%; weight of the tumor, treated vs control group (HT168M1 human melanoma; 2 mg/kg i.p. once every second day from 10th post-implantation day, evaluated on 41st day, FIG. 5): significantly lower (p=0.026); average body weight of treated animals vs controls at the time of evaluation (HT168M1 human melanoma; 2 mg/kg i.p. once every second day, 41st post-implantation day): this difference was not significant; body weight, treated vs control animals at the time of evaluation ([2]; FIG. 6): no significant difference; average weight of the primary tumour, treated vs control group ([2]; FIG. 7): lower in the treated group
